Reference: ChEMBL document CHEMBL1649182, “Binding of faropenem and other beta-lactam agents to penicillin-binding proteins of pneumococci with various beta-lactam susceptibilities” (Antimicrob Agents Chemother, 2009)
In brackets after ≈: the same amount, converted by molar mass.

What was measured:
[1] = Displacement of Biocillin FL from Streptococcus pneumoniae 2527 PBP2A
[2] = Displacement of Biocillin FL from Streptococcus pneumoniae 1076 PBP2A
Streptococcus pneumoniae [3] = experiment: Antimicrobial activity against penicillin-resistant Streptococcus pneumoniae 24 by CLSI method; format: functional
[4] = Displacement of Biocillin FL from Streptococcus pneumoniae 3413 PBP1B
Streptococcus pneumoniae [5] = experiment: Antimicrobial activity against Streptococcus pneumoniae 2688 by CLSI method; format: functional
[6] = biological target: T1, Penicillin-binding protein 2B (Streptococcus pneumoniae serotype 4 (strain ATCC BAA-334 / TIGR4), UniProt P0A3M5); experiment: Displacement of Biocillin FL from Streptococcus pneumoniae 2527 PBP2B
T1 sequence (P0A3M5 whole entry): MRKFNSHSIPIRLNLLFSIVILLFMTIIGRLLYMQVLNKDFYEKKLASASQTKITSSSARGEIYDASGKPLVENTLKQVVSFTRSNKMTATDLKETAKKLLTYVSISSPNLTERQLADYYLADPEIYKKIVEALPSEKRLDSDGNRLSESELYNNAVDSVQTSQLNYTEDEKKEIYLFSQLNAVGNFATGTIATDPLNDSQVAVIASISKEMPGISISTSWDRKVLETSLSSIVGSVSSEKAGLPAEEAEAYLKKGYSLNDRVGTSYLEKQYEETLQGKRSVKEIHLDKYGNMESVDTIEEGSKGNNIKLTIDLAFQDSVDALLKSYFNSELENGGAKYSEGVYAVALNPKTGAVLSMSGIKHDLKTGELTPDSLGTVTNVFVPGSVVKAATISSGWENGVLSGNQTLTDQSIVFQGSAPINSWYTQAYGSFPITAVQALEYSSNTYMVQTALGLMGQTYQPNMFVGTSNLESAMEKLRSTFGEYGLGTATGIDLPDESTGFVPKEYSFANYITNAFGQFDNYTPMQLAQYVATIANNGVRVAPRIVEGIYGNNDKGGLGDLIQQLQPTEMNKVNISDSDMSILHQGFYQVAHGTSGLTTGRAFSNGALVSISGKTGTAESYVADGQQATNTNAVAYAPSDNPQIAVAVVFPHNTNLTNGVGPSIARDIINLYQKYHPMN

[7] = biological target: T2, Penicillin-binding protein 1A (Streptococcus pneumoniae serotype 4 (strain ATCC BAA-334 / TIGR4), UniProt Q04707); experiment: Displacement of Biocillin FL from Streptococcus pneumoniae 3243 PBP1A
T2 sequence (Q04707 whole entry): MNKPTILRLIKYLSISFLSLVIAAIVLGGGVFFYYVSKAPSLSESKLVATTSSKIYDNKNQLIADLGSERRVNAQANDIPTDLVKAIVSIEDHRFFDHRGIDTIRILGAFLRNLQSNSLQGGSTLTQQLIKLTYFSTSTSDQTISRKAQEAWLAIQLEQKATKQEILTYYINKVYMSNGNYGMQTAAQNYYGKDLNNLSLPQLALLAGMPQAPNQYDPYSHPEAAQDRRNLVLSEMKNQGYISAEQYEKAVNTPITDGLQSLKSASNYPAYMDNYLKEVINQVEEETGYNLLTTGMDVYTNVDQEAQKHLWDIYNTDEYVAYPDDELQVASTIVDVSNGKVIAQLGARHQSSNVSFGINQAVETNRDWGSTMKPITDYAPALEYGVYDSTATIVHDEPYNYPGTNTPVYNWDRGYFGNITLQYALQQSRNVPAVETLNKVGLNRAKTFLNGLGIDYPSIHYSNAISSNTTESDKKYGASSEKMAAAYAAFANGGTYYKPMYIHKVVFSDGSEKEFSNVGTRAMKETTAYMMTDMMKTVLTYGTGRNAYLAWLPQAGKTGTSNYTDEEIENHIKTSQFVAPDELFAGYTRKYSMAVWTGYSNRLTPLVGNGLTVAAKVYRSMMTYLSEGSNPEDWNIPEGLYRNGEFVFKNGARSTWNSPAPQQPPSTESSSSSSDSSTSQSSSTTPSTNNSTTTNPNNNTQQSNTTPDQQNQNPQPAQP

[8] = Displacement of Biocillin FL from Streptococcus pneumoniae 3413 PBP3
[9] = biological target: T1, Penicillin-binding protein 2B; experiment: Displacement of Biocillin FL from Streptococcus pneumoniae 1076 PBP2B
Streptococcus pneumoniae [10] = experiment: Antimicrobial activity against Streptococcus pneumoniae 1564 by CLSI method; format: functional
[11] = biological target: T2, Penicillin-binding protein 1A; experiment: Displacement of Biocillin FL from Streptococcus pneumoniae 1077 PBP1A
[12] = biological target: T1, Penicillin-binding protein 2B; experiment: Displacement of Biocillin FL from Streptococcus pneumoniae 24 PBP2B
[13] = biological target: T2, Penicillin-binding protein 1A; experiment: Displacement of Biocillin FL from Streptococcus pneumoniae 2527 PBP1A
[14] = biological target: T1, Penicillin-binding protein 2B; experiment: Displacement of Biocillin FL from Streptococcus pneumoniae 3243 PBP2B
[15] = Displacement of Biocillin FL from Streptococcus pneumoniae 2527 PBP1B
[16] = Displacement of Biocillin FL from Streptococcus pneumoniae 1076 PBP1B
[17] = biological target: T2, Penicillin-binding protein 1A; experiment: Displacement of Biocillin FL from Streptococcus pneumoniae 3009 PBP1A
Streptococcus pneumoniae [18] = experiment: Antimicrobial activity against penicillin-intermediate Streptococcus pneumoniae 3243 by CLSI method; format: functional
[19] = biological target: T3, Penicillin-binding protein 2x (Streptococcus pneumoniae serotype 4 (strain ATCC BAA-334 / TIGR4), UniProt P14677); experiment: Displacement of Biocillin FL from Streptococcus pneumoniae 3413 PBP2X
T3 sequence (P14677 whole entry): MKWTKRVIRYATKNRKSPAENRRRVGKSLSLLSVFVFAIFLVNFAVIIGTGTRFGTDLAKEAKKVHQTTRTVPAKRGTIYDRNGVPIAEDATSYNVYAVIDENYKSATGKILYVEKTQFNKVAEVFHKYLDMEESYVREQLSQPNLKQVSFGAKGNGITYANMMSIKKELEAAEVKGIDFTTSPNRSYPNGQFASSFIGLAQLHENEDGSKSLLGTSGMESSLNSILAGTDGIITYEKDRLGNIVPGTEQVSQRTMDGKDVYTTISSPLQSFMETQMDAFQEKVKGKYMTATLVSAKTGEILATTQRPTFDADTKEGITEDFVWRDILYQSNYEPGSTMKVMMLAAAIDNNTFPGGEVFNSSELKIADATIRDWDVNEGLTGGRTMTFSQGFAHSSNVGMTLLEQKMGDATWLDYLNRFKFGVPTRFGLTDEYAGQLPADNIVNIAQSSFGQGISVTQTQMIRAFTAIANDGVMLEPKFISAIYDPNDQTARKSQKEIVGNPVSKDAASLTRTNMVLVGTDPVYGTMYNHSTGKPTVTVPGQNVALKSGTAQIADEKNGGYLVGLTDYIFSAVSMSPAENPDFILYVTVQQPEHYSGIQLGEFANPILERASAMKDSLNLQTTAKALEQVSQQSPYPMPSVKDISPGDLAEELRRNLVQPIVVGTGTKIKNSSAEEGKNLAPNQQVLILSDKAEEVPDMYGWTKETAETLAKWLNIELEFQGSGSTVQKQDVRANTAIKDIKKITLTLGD

[20] = biological target: T3, Penicillin-binding protein 2x; experiment: Displacement of Biocillin FL from Streptococcus pneumoniae 3243 PBP2X
Streptococcus pneumoniae [21] = experiment: Antimicrobial activity against penicillin-intermediate Streptococcus pneumoniae 3676 by CLSI method; format: functional

| SMILES | IC50 [1] [µg/mL] | IC50 [2] [µg/mL] | MIC (Streptococcus pneumoniae [3]) [µg/mL] | IC50 [4] [µg/mL] | MIC (Streptococcus pneumoniae [5]) [µg/mL] | IC50 [6] [nM] | IC50 [7] [nM] | IC50 [8] [µg/mL] | IC50 [9] [nM] | MIC (Streptococcus pneumoniae [10]) [µg/mL] | IC50 [11] [nM] | IC50 [12] [nM] | IC50 [13] [nM] | IC50 [14] [nM] | IC50 [15] [µg/mL] | IC50 [16] [µg/mL] | IC50 [17] [nM] | MIC (Streptococcus pneumoniae [18]) [µg/mL] | IC50 [19] [nM] | IC50 [20] [nM] | further results |
| --- | --- | --- | --- | --- | --- | --- | --- | --- | --- | --- | --- | --- | --- | --- | --- | --- | --- | --- | --- | --- | --- |
| CC1(C)S[C@@H]2[C@H](NC(=O)[C@H](N)c3ccc(O)cc3)C(=O)N2[C@H]1C(=O)O [AMOXICILLIN] | 0.051 (≈ 0.14 µM) | 0.08 (≈ 0.219 µM) | 2 (≈ 5.47 µM) | 0.035 (≈ 0.0958 µM) | 16 (≈ 43.8 µM) | 90.3 | 161 | 0.029 (≈ 0.0794 µM) | 151 | 4 (≈ 10.9 µM) | 46.5 | 482 | 134 | 79.4 | 0.029 (≈ 0.0794 µM) | 0.068 (≈ 0.186 µM) | 246 | 0.06 (≈ 0.164 µM) | 170 | 49.3 | MIC (Streptococcus pneumoniae [21]): 0.03 µg/mL (≈ 0.0821 µM) |
| CO/N=C(\C(=O)N[C@@H]1C(=O)N2C(C(=O)O)=C(COC(N)=O)CS[C@H]12)c1ccco1 [CEFUROXIME] | 0.01 (≈ 0.0236 µM) | 0.004 (≈ 0.00943 µM) | 2 (≈ 4.71 µM) | 0.032 (≈ 0.0754 µM) | 4 (≈ 9.43 µM) | 6230 | 14.1 | 0.004 (≈ 0.00943 µM) | 403 | 8 (≈ 18.9 µM) | 386 | 89.5 | 14.1 | 54.2 | 0.028 (≈ 0.066 µM) | 0.008 (≈ 0.0189 µM) | 23.6 | 0.25 (≈ 0.589 µM) | 9.43 | 33 | MIC (Streptococcus pneumoniae [21]): 0.125 µg/mL (≈ 0.295 µM) |
| C[C@@H](O)[C@H]1C(=O)N2C(C(=O)O)=C([C@H]3CCCO3)S[C@H]12 [FAROPENEM] | 0.025 (≈ 0.0876 µM) | 0.035 (≈ 0.123 µM) | 1 (≈ 3.5 µM) | 0.019 (≈ 0.0666 µM) | 0.06 (≈ 0.21 µM) | 35 | 14 | 0.003 (≈ 0.0105 µM) | 45.6 | 0.03 (≈ 0.105 µM) | 52.6 | 116 | 80.6 | 45.6 | 0.002 (≈ 0.00701 µM) | 0.002 (≈ 0.00701 µM) | 35 | 0.125 (≈ 0.438 µM) | 1520 | 137 | MIC (Streptococcus pneumoniae [21]): 0.125 µg/mL (≈ 0.438 µM) |
| C[C@@H](O)[C@H]1C(=O)N2C(C(=O)O)=C(SCCNC=N)C[C@H]12 [IMIPENEM ANHYDROUS] | 0.059 (≈ 0.197 µM) | 0.054 (≈ 0.18 µM) | 0.25 (≈ 0.835 µM) | 0.316 (≈ 1.06 µM) | 0.25 (≈ 0.835 µM) | 207 | 608 | 0.195 (≈ 0.651 µM) | 237 | 0.125 (≈ 0.418 µM) | 174 | 441 | 140 | 220 | 0.023 (≈ 0.0768 µM) | 0.031 (≈ 0.104 µM) | 86.9 | 0.016 (≈ 0.0534 µM) | 1430 | 635 | MIC (Streptococcus pneumoniae [21]): 0.016 µg/mL (≈ 0.0534 µM) |
| CC1(C)S[C@@H]2[C@H](NC(=O)Cc3ccccc3)C(=O)N2[C@H]1C(=O)O [PENICILLIN G] | 0.023 (≈ 0.0688 µM) | 0.02 (≈ 0.0598 µM) | 4 (≈ 12 µM) | 0.205 (≈ 0.613 µM) | 8 (≈ 23.9 µM) | 287 | 23.9 | 0.01 (≈ 0.0299 µM) | 179 | 16 (≈ 47.8 µM) | 26.9 | 332 | 5.98 | 182 | 0.009 (≈ 0.0269 µM) | 0.007 (≈ 0.0209 µM) | 26.9 | 0.25 (≈ 0.748 µM) | 1920 | 20.9 | MIC (Streptococcus pneumoniae [21]): 0.25 µg/mL (≈ 0.748 µM) |
